Source: ChEMBL document CHEMBL5528067, “From Synergy to Monotherapy: Discovery of Novel 2,4,6-Trisubstituted Triazine Hydrazone Derivatives with Potent Antifungal Potency In Vitro and In Vivo” (J Med Chem, 2024)
Values after ≈ are worked out from the molar mass of the structure shown. Active and inactive are the calls of the source. No cut-off for these calls is given here.

Assays:
Cryptococcus neoformans = assay: Antifungal activity against Cryptococcus neoformans 32609 assessed as growth inhibition measured after 48 hrs incubation by CLSI based micro-dilution broth method; assay type: functional
Candida tropicalis = assay: Antifungal activity against Candida tropicalis 8915 assessed as growth inhibition measured after 48 hrs incubation by CLSI based micro-dilution broth method; assay type: functional
[Candida] auris [1] = Antifungal activity against FCZ-resistant Candida auris 918 assessed as growth inhibition measured after 48 hrs incubation by CLSI based micro-dilution broth method; assay type: functional; settings: Candidozyma auris
Nakaseomyces glabratus = assay: Antifungal activity against Candida glabrata 537 assessed as growth inhibition measured after 48 hrs incubation by CLSI based micro-dilution broth method; assay type: functional
Candida parapsilosis = assay: Antifungal activity against Candida parapsilosis 22019 assessed as growth inhibition measured after 48 hrs incubation by CLSI based micro-dilution broth method; assay type: functional; settings: Lodderomyces parapsilosis
Candida albicans [2] = assay: Antifungal activity against FCZ-resistant Candida albicans SC5314 assessed as growth inhibition measured after 48 hrs incubation by CLSI based micro-dilution broth method; assay type: functional
[Candida] auris [3] = Antifungal activity against FCZ-resistant Candida auris 919 assessed as growth inhibition measured after 48 hrs incubation by CLSI based micro-dilution broth method; assay type: functional; settings: Candidozyma auris
Candida albicans [4] = assay: Antifungal activity against FCZ-resistant Candida albicans strain 901 assessed as growth inhibition in presence of fluconazole measured after 48 hrs incubation by CLSI based micro-dilution broth method; assay type: functional
Pichia kudriavzevii = assay: Antifungal activity against Candida krusei 4996 assessed as growth inhibition measured after 48 hrs incubation by CLSI based micro-dilution broth method; assay type: functional
Candida albicans [5] = assay: Antifungal activity against FCZ-resistant Candida albicans 10231 assessed as growth inhibition measured after 48 hrs incubation by CLSI based micro-dilution broth method; assay type: functional
Candida albicans [6] = assay: Antifungal activity against FCZ-resistant Candida albicans strain 901 assessed as growth inhibition measured after 48 hrs incubation by CLSI based micro-dilution broth method; assay type: functional
Candida albicans [7] = assay: Antifungal activity against FCZ-resistant Candida albicans strain 904 assessed as growth inhibition measured after 48 hrs incubation by CLSI based micro-dilution broth method; assay type: functional
Candida albicans [8] = assay: Antifungal activity against FCZ-resistant Candida albicans strain 904 assessed as growth inhibition in presence of fluconazole measured after 48 hrs incubation by CLSI based micro-dilution broth method; assay type: functional
Candida albicans [9] = assay: Synergistic antifungal activity against FCZ-resistant Candida albicans strain 904 assessed as fractional inhibitory concentration index measured after 48 hrs in presence of FCZ by CLSI based micro-dilution broth method; assay type: functional
Candida albicans [10] = assay: Synergistic antifungal activity against FCZ-resistant Candida albicans strain 901 assessed as fractional inhibitory concentration index measured after 48 hrs in presence of FCZ by CLSI based micro-dilution broth method; assay type: functional
[11] = Metabolic stability in mouse liver microsomes assessed as half life measured upto 60 mins by LC-MS/MS analysis; assay type: ADME, Microsome
[12] = Metabolic stability in mouse liver microsomes assessed as intrinsic clearance measured per mg of protein upto 60 mins by LC-MS/MS analysis; assay type: ADME, Microsome; settings: read-out: CLH
Candida albicans [13] = assay: In vivo antifungal activity against Candida albicans SC5314 infected in C57BL/6J mouse assessed as reduction in fungal burden in kidney at 10 mg/kg, po treated once a day for 2 days; assay type: functional, organism-based; settings: time 2.0 day
[14] = Cytotoxicity against human HUVEC cells assessed as cell viability at 16 microg/ml measured after 24 hrs by CCK-8 assay relative to control; assay type: toxicity, cell-based; settings: at 16 µg/mL, read-out: Activity
[15] = Hemolytic activity in rabbit Red blood cell assessed as hemolysis rate at 64 microg/ml incubated for 1 hr; assay type: toxicity, cell-based, Oryctolagus cuniculus, Erythrocyte; settings: red blood cells, at 64 µg/mL, read-out: Activity
[16] = Cytotoxicity against human HUVEC cells assessed as cell viability measured after 24 hrs by CCK-8 assay; assay type: toxicity, cell-based
Candida albicans [17] = assay: Antifungal activity against FCZ-resistant Candida albicans strains assessed as growth inhibition measured after 48 hrs incubation by CLSI based micro-dilution broth method; assay type: functional

Row | SMILES | MIC80 (Cryptococcus neoformans) [µg/mL] | MIC80 (Candida tropicalis) [µg/mL] | MIC80 ([Candida] auris [1]) [µg/mL] | MIC80 (Nakaseomyces glabratus) [µg/mL] | MIC80 (Candida parapsilosis) [µg/mL] | MIC80 (Candida albicans [2]) [µg/mL] | MIC80 ([Candida] auris [3]) [µg/mL] | MIC80 (Candida albicans [4]) [µg/mL] | MIC80 (Pichia kudriavzevii) [µg/mL] | MIC80 (Candida albicans [5]) [µg/mL] | MIC80 (Candida albicans [7]) [µg/mL] | MIC80 (Candida albicans [8]) [µg/mL] | fractional inhibitory concentration index (FICI) (Candida albicans [9]) | fractional inhibitory concentration index (FICI) (Candida albicans [10]) | further results
1 | O=[N+]([O-])c1ccc(/C=N/Nc2nc(NCc3ccc(F)cc3)nc(NCc3ccc(F)cc3)n2)c(O)c1 | > 64 | > 64 | > 64 | 2 (≈ 3.95 µM) | > 64 | > 64 | > 64 | 0.5 | > 64 | > 64 | 2 (≈ 3.95 µM) | 0.5 | 0.38 | 0.38 | MIC80 (Candida albicans [6]): 2 µg/mL (≈ 3.95 µM)
2 | O=[N+]([O-])c1ccc(O)c(/C=N/Nc2nc(N3CCOCC3)nc(N3CCOCC3)n2)c1 | > 64 | > 64 | > 64 | > 64 | > 64 | > 64 | > 64 |  | > 64 | > 64 |  |  |  |  | 
3 | COc1ccc(Nc2nc(N/N=C/c3cc([N+](=O)[O-])ccc3O)nc(Nc3ccc(OC)cc3)n2)cc1 | 2 (≈ 3.98 µM) | 4 (≈ 7.96 µM) | > 64 | 2 (≈ 3.98 µM) | > 64 | 2 (≈ 3.98 µM) | > 64 |  | 1 (≈ 1.99 µM) | 16 (≈ 31.8 µM) |  |  |  |  | 
4 | O=[N+]([O-])c1cccc(/C=N/Nc2nc(NCc3ccc(F)cc3)nc(NCc3ccc(F)cc3)n2)c1O | 1 (≈ 1.97 µM) | 2 (≈ 3.95 µM) | 4 (≈ 7.9 µM) | 1 (≈ 1.97 µM) | 2 (≈ 3.95 µM) | 8 (≈ 15.8 µM) | 32 (≈ 63.2 µM) | 0.25 | 2 (≈ 3.95 µM) | 32 (≈ 63.2 µM) | 1 (≈ 1.97 µM) | 0.25 | 0.38 | 0.25 | MIC80 (Candida albicans [6]): 2 µg/mL (≈ 3.95 µM)
5 | O=[N+]([O-])c1ccc(O)c(/C=N/Nc2nc(NCc3ccc(F)cc3)nc(NCc3ccco3)n2)c1 | 2 (≈ 4.18 µM) | 2 (≈ 4.18 µM) | 2 (≈ 4.18 µM) | 1 (≈ 2.09 µM) | 2 (≈ 4.18 µM) | 2 (≈ 4.18 µM) | 4 (≈ 8.36 µM) |  | 1 (≈ 2.09 µM) | 8 (≈ 16.7 µM) |  |  |  |  | 
6 | Cc1ncc2n1-c1ccc(Cl)cc1C(c1ccccc1F)=NC2 [MIDAZOLAM] |  |  |  |  |  |  |  |  |  |  |  |  |  |  | half-life [11]: 3.09 min; microsomal CLint [12]: 1120 µL/min/mg
7 | O=[N+]([O-])c1ccc(O)c(/C=N/Nc2nc(NCc3ccco3)nc(NCc3ccco3)n2)c1 | 2 (≈ 4.44 µM) | 2 (≈ 4.44 µM) | 4 (≈ 8.88 µM) | 1 (≈ 2.22 µM) | 4 (≈ 8.88 µM) | 2 (≈ 4.44 µM) | 4 (≈ 8.88 µM) |  | 1 (≈ 2.22 µM) | 8 (≈ 17.8 µM) |  |  |  |  | 
8 | O=[N+]([O-])c1ccc(O)c(/C=N/Nc2nc(NCc3ccc(F)cc3)nc(N3CCOCC3)n2)c1 | 4 (≈ 8.54 µM) | 4 (≈ 8.54 µM) | > 64 | 1 (≈ 2.13 µM) | 32 (≈ 68.3 µM) | 4 (≈ 8.54 µM) | > 64 |  | 2 (≈ 4.27 µM) | 16 (≈ 34.2 µM) |  |  |  |  | 
9 | O=[N+]([O-])c1ccc(O)c(/C=N/Nc2nc(NCc3ccc(F)cc3)nc(Nc3ccc(F)cc3)n2)c1 | 2 (≈ 4.06 µM) | 2 (≈ 4.06 µM) | 8 (≈ 16.2 µM) | 0.5 (≈ 1.02 µM) | 8 (≈ 16.2 µM) | 2 (≈ 4.06 µM) | 32 (≈ 65 µM) |  | 1 (≈ 2.03 µM) | 8 (≈ 16.2 µM) |  |  |  |  | 
10 | Oc1ccccc1/C=N/Nc1nc(NCc2ccc(F)cc2)nc(NCc2ccc(F)cc2)n1 | 8 (≈ 17.3 µM) | > 64 | > 64 | 4 (≈ 8.67 µM) | 8 (≈ 17.3 µM) | > 64 | > 64 | 0.5 | > 64 | > 64 | 4 (≈ 8.67 µM) | 0.5 | 0.25 | 0.25 | MIC80 (Candida albicans [6]): 4 µg/mL (≈ 8.67 µM)
11 | COc1ccc(Nc2nc(NCc3ccc(F)cc3)nc(N/N=C/c3cc([N+](=O)[O-])ccc3O)n2)cc1 | 2 (≈ 3.96 µM) | 2 (≈ 3.96 µM) | 32 (≈ 63.4 µM) | 0.5 (≈ 0.991 µM) | 8 (≈ 15.9 µM) | 2 (≈ 3.96 µM) | 32 (≈ 63.4 µM) |  | 1 (≈ 1.98 µM) | 16 (≈ 31.7 µM) |  |  |  |  | 
12 | O=[N+]([O-])c1ccc(O)c(/C=N/Nc2nc(NCc3ccc(F)cc3)nc(NCC3CCCCC3)n2)c1 | 2 (≈ 4.04 µM) | 2 (≈ 4.04 µM) | 4 (≈ 8.09 µM) | 1 (≈ 2.02 µM) | 2 (≈ 4.04 µM) | 2 (≈ 4.04 µM) | 8 (≈ 16.2 µM) |  | 1 (≈ 2.02 µM) | 16 (≈ 32.4 µM) |  |  |  |  | 
13 | COc1ccc(Nc2nc(NCc3ccco3)nc(N/N=C/c3cc([N+](=O)[O-])ccc3O)n2)cc1 | 2 (≈ 4.2 µM) | 4 (≈ 8.4 µM) | 8 (≈ 16.8 µM) | 0.5 (≈ 1.05 µM) | 4 (≈ 8.4 µM) | 2 (≈ 4.2 µM) | 8 (≈ 16.8 µM) |  | 1 (≈ 2.1 µM) | 8 (≈ 16.8 µM) |  |  |  |  | 
14 | NCCOCCOCCNC(=O)Cc1ccc(Nc2nc(NCc3ccc(F)cc3)nc(NCC3CCCCC3)n2)cc1 | 16 (≈ 26.9 µM) | 32 (≈ 53.8 µM) | 32 (≈ 53.8 µM) | 32 (≈ 53.8 µM) | 32 (≈ 53.8 µM) | 16 (≈ 26.9 µM) | 32 (≈ 53.8 µM) | 16 | 32 (≈ 53.8 µM) | 32 (≈ 53.8 µM) | 32 (≈ 53.8 µM) | 8 | 0.38 | 0.63 | Activity (Candida albicans [13]): Active; viability at 24 h, 16 microg/ml [14]: 89.8%; hemolysis at 1 h, 64 microg/ml [15]: 3.48%; IC50 at 24 h [16]: 48.2 µg/mL (≈ 81.1 µM)
15 | Oc1cccc(/C=N/Nc2nc(NCc3ccc(F)cc3)nc(NCc3ccc(F)cc3)n2)c1 |  |  |  |  |  |  |  | 8 |  |  | > 64 | 8 | 0.25 | 0.25 | MIC80 (Candida albicans [6]): > 64 µg/mL
16 | O=[N+]([O-])c1cccc(O)c1/C=N/Nc1nc(NCc2ccc(F)cc2)nc(NCc2ccc(F)cc2)n1 | > 64 | > 64 | > 64 | 2 (≈ 3.95 µM) | > 64 | > 64 | > 64 | 0.25 | > 64 | > 64 | 4 (≈ 7.9 µM) | 1 | 0.38 | 0.19 | MIC80 (Candida albicans [17]): 4 µg/mL (≈ 7.9 µM); MIC80 (Candida albicans [6]): 4 µg/mL (≈ 7.9 µM)
17 | O=[N+]([O-])c1ccc(O)c(/C=N/Nc2nc(NCc3ccccc3)nc(NCc3ccc(F)cc3)n2)c1 | 2 (≈ 4.09 µM) | 2 (≈ 4.09 µM) | 4 (≈ 8.19 µM) | 0.5 (≈ 1.02 µM) | 4 (≈ 8.19 µM) | 2 (≈ 4.09 µM) | 16 (≈ 32.8 µM) |  | 1 (≈ 2.05 µM) | 8 (≈ 16.4 µM) |  |  |  |  | 
